From PubChem BioAssay (NCI) come the findings set out here.

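Cultured in 96-well plates, cells were exposed to test compound for 48 hours across five concentrations. GI50: concentration for 50% inhibition of growth. TGI is the concentration that stops growth completely.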

Test systems include SW-620 colon; T-47D breast; SF-539 CNS; MDA-MB-231 breast; M14 melanoma; ACHN renal; SK-MEL-2 melanoma; NCI-H460 lung; CAKI-1 renal; SNB-19 CNS.
What all share (test): NCI anticancer screen, dose series, 48 h

In the case of `Cc1cccc(N=N/C(=N\NC(=O)c2cc(Cl)ccc2O)c2ccc(N(CCC#N)CCC#N)cc2C)c1`, the TGI is more than 100 µM in the experiment on SW-620 colon; 59.6 µM in the experiment on T-47D breast; more than 100 µM in the experiment with SF-539 CNS; 58.6 µM in the experiment on MDA-MB-231 breast; more than 100 µM in the experiment on M14 melanoma; more than 100 µM with ACHN renal. Also, the TGI in the experiment with SK-MEL-2 melanoma was more than 100 µM; with NCI-H460 lung, 79.7 µM; with CAKI-1 renal it was more than 100 µM; in the experiment with SNB-19 CNS, more than 100 µM.
For `Cn1c(=O)c2c(=O)cc(N)[nH]c2n(C)c1=O`, the TGI with SW-620 colon, with T-47D breast, in the experiment with SF-539 CNS, with MDA-MB-231 breast, with M14 melanoma and in the experiment on ACHN renal was more than 100 µM each time. The TGI was more than 100 µM with SK-MEL-2 melanoma, more than 100 µM with NCI-H460 lung, 76.8 µM in the experiment on CAKI-1 renal and more than 100 µM in the experiment on SNB-19 CNS.
As for `[O-][N+]1=C2CCC/C(=N/O)C2(O)C2CCCCC21N1CCOCC1` (configuration not stated), the TGI with SW-620 colon, in the experiment with T-47D breast, in the experiment on SF-539 CNS, in the experiment on MDA-MB-231 breast, with M14 melanoma and in the experiment with ACHN renal was more than 100 µM in each case. Further, the TGI in the experiment with SK-MEL-2 melanoma, with NCI-H460 lung, with CAKI-1 renal and in the experiment with SNB-19 CNS was more than 100 µM each time.
With `CCCCCCCCCCCCCCCCCCOc1ccccc1COP(=O)(O)OOCC[N+](C)(C)C`, the GI50 with SW-620 colon is 1.43 µM; with T-47D breast, 1.79 µM; in the experiment on SF-539 CNS it was 1.19 µM; with MDA-MB-231 breast it was 0.932 µM; with ACHN renal, 1.45 µM; in the experiment with SK-MEL-2 melanoma it was 1.71 µM. Moreover, the GI50 is 2.81 µM in the experiment with NCI-H460 lung, 1.2 µM with CAKI-1 renal and 1.44 µM with SNB-19 CNS. Besides, the TGI with SW-620 colon amounted to 5.36 µM; in the experiment on T-47D breast, 11.2 µM; with SF-539 CNS, 3.02 µM; in the experiment with MDA-MB-231 breast, 2.26 µM; in the experiment with ACHN renal, 5.62 µM; in the experiment on SK-MEL-2 melanoma it was 9.65 µM. Further, the values for the TGI with NCI-H460 lung, in the experiment with CAKI-1 renal and in the experiment on SNB-19 CNS were 12.5 µM, 4.14 µM and 7.76 µM, respectively.
Take `CC(C)C(/C=C/c1ccc(Cl)cc1)=N\NC(=O)N/N=C(/C=C/c1ccc(Cl)cc1)C(C)C`: the TGI in the experiment with SW-620 colon is more than 100 µM; with T-47D breast, more than 100 µM; with SF-539 CNS, 31.2 µM; in the experiment with MDA-MB-231 breast it was 49.4 µM; in the experiment on M14 melanoma, 60 µM; in the experiment on ACHN renal, 87.3 µM. For the same compound, the TGI in the experiment with SK-MEL-2 melanoma amounted to 59.8 µM; in the experiment on NCI-H460 lung, 54.8 µM; in the experiment on CAKI-1 renal it was 35.6 µM; in the experiment with SNB-19 CNS, 38.8 µM.
As to `CC1(C)N([O-])[N+](=O)C1(C)O` (configuration not stated), the TGI in the experiment with SW-620 colon, in the experiment on T-47D breast, in the experiment with SF-539 CNS, with MDA-MB-231 breast, in the experiment on M14 melanoma and in the experiment with SK-MEL-2 melanoma was more than 100 µM each time. The TGI in the experiment with NCI-H460 lung, in the experiment on CAKI-1 renal and in the experiment on SNB-19 CNS was more than 100 µM each time.
As to `O=C1OC(c2ccccc2Br)=N/C1=C/c1ccccc1`, the TGI in the experiment with SW-620 colon was more than 100 µM; with T-47D breast it was more than 100 µM; in the experiment with SF-539 CNS, 37.9 µM; in the experiment with MDA-MB-231 breast, 89.8 µM; in the experiment on M14 melanoma, 41.1 µM; in the experiment on ACHN renal, 77.5 µM. Further, the TGI in the experiment with SK-MEL-2 melanoma was 41.7 µM; in the experiment on NCI-H460 lung, more than 100 µM; with CAKI-1 renal, more than 100 µM; in the experiment with SNB-19 CNS it was 96.8 µM.
Take `COC(=O)C1Cc2cc3c(cc2C1)CCC3`: the TGI with SW-620 colon, with T-47D breast, in the experiment with SF-539 CNS, in the experiment with MDA-MB-231 breast, with M14 melanoma and in the experiment with ACHN renal was more than 100 µM each time. Besides, the TGI in the experiment on SK-MEL-2 melanoma, in the experiment with NCI-H460 lung, with CAKI-1 renal and in the experiment with SNB-19 CNS was more than 100 µM throughout.
Turning to `CCOC(=O)CC1Nc2ccccc2C12CCc1c([nH]c3ccccc13)C2C(=O)OCC` (configuration not stated), the TGI with SW-620 colon, in the experiment with T-47D breast, in the experiment with SF-539 CNS, with MDA-MB-231 breast, in the experiment with M14 melanoma and in the experiment with ACHN renal was more than 100 µM in each case. For the same compound, the TGI in the experiment with SK-MEL-2 melanoma, with NCI-H460 lung, with CAKI-1 renal and with SNB-19 CNS was more than 100 µM in each case.
Consider `OC(Cc1cc(CC(O)(C(F)(F)F)C(F)(F)F)nc(CC(O)(C(F)(F)F)C(F)(F)F)c1)(C(F)(F)F)C(F)(F)F`, for which the TGI is more than 10 µM in the experiment with SW-620 colon; more than 10 µM in the experiment with T-47D breast; 3.44 µM with SF-539 CNS; 3.68 µM with MDA-MB-231 breast; 8.25 µM with M14 melanoma; more than 10 µM in the experiment on ACHN renal. Besides, the TGI in the experiment on SK-MEL-2 melanoma came out at 4.31 µM; with NCI-H460 lung it was 1.81 µM; in the experiment on CAKI-1 renal, 2.31 µM; in the experiment with SNB-19 CNS it was 8.79 µM.
For the compound `CC(C)CC1N=C(OCc2ccccc2)OC1=O` (configuration not stated), the TGI with SW-620 colon, in the experiment on T-47D breast, in the experiment on SF-539 CNS, with MDA-MB-231 breast, in the experiment with M14 melanoma and with ACHN renal was more than 100 µM each time. Also, the TGI in the experiment on SK-MEL-2 melanoma, with NCI-H460 lung, with CAKI-1 renal and in the experiment with SNB-19 CNS was more than 100 µM each time.
With `CC1CC(=O)Nc2ccccc2N1C(=O)C1CC1` (configuration not stated), the TGI with SW-620 colon, in the experiment on T-47D breast, with SF-539 CNS, with MDA-MB-231 breast, in the experiment with M14 melanoma and in the experiment on ACHN renal was more than 100 µM throughout. Further, the TGI in the experiment on SK-MEL-2 melanoma, with NCI-H460 lung, in the experiment with CAKI-1 renal and in the experiment with SNB-19 CNS was more than 100 µM throughout.
Turning to `O=C(/C=C/c1cccc(Br)c1)N1CCN(CCOC(c2ccccc2)c2ccccc2)CC1`, the TGI was more than 100 µM with SW-620 colon; 82.9 µM in the experiment with T-47D breast; 39.1 µM in the experiment on SF-539 CNS; more than 100 µM in the experiment on MDA-MB-231 breast; more than 100 µM in the experiment with M14 melanoma; more than 100 µM in the experiment on ACHN renal. For the same compound, the TGI with SK-MEL-2 melanoma, in the experiment on NCI-H460 lung, in the experiment with CAKI-1 renal and in the experiment on SNB-19 CNS was more than 100 µM in each case.
